Results reported in US9067920B2, “Compounds useful for inhibiting Chk1” (Eli Lilly and Company, priority 2010, dated 2015).
Counter-ions that a name gives are not always drawn.

Legend:
Format in all cases: in vivo, nude mice
[1] = test system: Calu-6 lung tumor xenograft; test: Calu-6 tumor xenograft model, subcutaneous administration of Chk1 inhibitor
Method: (§1) The ability of Chk1 inhibitors to potentiate tumor killing by DNA damaging agents can be determined in vivo using the Calu-6 lung and HT-29 colon tumor xenograft efficacy models. Calu-6 lung cancer cells are cultured in growth media (MEM with Earle's Balanced Salt Solution with L-glutamine supplemented with 10% (v/v) heat inactivated FBS, 1×MEM non-essential amino acids, 1× sodium pyruvate) and HT-29 colon cancer cells (ATCC) are cultured in growth media, (McCoy's 5A medium supplemented with 10% FBS) and expanded.
(§2) Cells are harvested and washed twice with phosphate buffered saline and 5×10^6 cells (HT-29) or 1×10^6 a cells (Calu-6) in growth media (without serum) are mixed with equal volume of BD Matrigel™ matrix, then injected subcutaneously into the flank of nude mice (CD-1 nu/nu).
At about day 16 after implant ([…]), gemcitabine is formulated fresh in saline daily and administered to animals by intraperitoneal route at 60 mg/kg dose. Twenty four hours later animals are administered the compound of Example 3, in 0.2% Tween-80/0.5% methylcellulose subcutaneously BID. After […], dosing is repeated for three additional cycles (Q4Dx4 with the compound of Example 3 offset+24 hours), Tumor growth inhibition (TGI) is calculated as the percent reduction in mean tumor size of a compound treated group from the mean tumor size of the vehicle-treated control group. Compounds within the scope of the invention are tested in this assay run substantially as above.

[2] = test system: Calu-6 lung tumor xenograft; test: Calu-6 tumor xenograft model, oral administration of Chk1 inhibitor
Method: as §1, §2
(§3) At about day 16 after implant (150-200 mm^3), gemcitabine is formulated fresh in saline daily and administered to animals by intraperitoneal route at 40 mg/kg dose. Twenty four hours later animals are administered Chk1 compound, in 0.2% Tween-80/0.5% methylcellulose by the oral route MD. After three days of rest, dosing was repeated for three additional cycles (Q5Dx4 with the compound of Example 3 offset+24 hours). Tumor growth inhibition (TGI) is calculated as described in the previous paragraph. Compounds within the scope of the invention are tested in this assay run substantially as above.

[3] = test system: HT-29 colon tumor xenograft; test: HT-29 tumor xenograft model, oral administration of Chk1 inhibitor
Method: as §1, §2, §3

## COc1nc(C)ccc1-c1cc(Nc2cncc(O[C@@H]3CCCNC3)n2)[nH]n1 [Example 3, (R)-[5-(2-Methoxy-6-methyl-pyridin-3-yl)-2H-pyrazol-3-yl]-[6-(piperidin-3-yloxy)-pyrazin-2-yl]-amine acetic acid salt]
[1]; Calu 6, Example 3 40 mpk subcutaneous BID alone
  % TGI at day 47: −19%
[1]; Calu-6 xenograft, subcutaneous BID, gemcitabine 60 mg/kg ip
  anti-tumor activity in combination with gemcitabine: excellent dose dependent anti-tumor activity
[2]; Calu6, Example 3 30 mpk oral alone
  % TGI at day 37: 37%
[2]; Calu-6 xenograft, oral, gemcitabine 40 mg/kg ip
  anti-tumor activity in combination with gemcitabine: excellent dose dependent anti-tumor activity
[3]; HT29, Example 3 30 mpk oral alone
  % TGI at day 50: 39%
[3]; HT-29 xenograft, oral, gemcitabine 40 mg/kg ip
  anti-tumor activity in combination with gemcitabine: excellent dose dependent anti-tumor activity
[3]; oral, stated for HT-29 and Calu-6 models together
  increase in tumor growth inhibition over gemcitabine alone: ≤ 2,9 fold
